The source of these data is EP2857388A1, “Azoles containing sulfone” (Grünenthal GmbH, priority 2013, dated 2015).

This test concerns the target T1, human B1R (Homo sapiens, UniProt P46663).
T1 construct: expressed in transfected cells; host or cells: CHO K1 cells (Chinese Hamster Ovary), stably transfected
T1 sequence (P46663 1-353): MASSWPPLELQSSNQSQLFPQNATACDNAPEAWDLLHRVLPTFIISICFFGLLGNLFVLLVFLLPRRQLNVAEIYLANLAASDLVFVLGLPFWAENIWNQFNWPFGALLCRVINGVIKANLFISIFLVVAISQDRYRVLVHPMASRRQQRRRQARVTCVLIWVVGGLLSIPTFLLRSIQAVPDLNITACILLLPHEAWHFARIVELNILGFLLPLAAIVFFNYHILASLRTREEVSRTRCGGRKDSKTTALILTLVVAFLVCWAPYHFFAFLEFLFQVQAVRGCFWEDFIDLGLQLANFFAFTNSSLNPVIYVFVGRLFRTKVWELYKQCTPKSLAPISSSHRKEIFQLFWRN
The experiment in a line: Functional assay at bradykinin receptor 1 (B1R): Ca2+ fluorescence (Fluo-4) in FLIPR/Novostar, antagonist mode. Format: cell-based. Particulars: test substance 10 µM; CHO K1 cells stably transfected with human B1R gene (hB1R-Zellen); agonist Lys-Des-Arg9-Bradykinin at EC80; % inhibition relative to maximal achievable inhibition; read-out: % Inhibierung (human B1R) bei 10 µM. In a few lines: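 CHO K1 cells stably expressing human B1R were loaded with Fluo-4 and preincubated 6–20 min with test compound before Lys-Des-Arg9-bradykinin at its EC80. Peak fluorescence (ex 488/em 540 nm) gave % inhibition versus maximal inhibition; IC50 from several concentrations, n=2 or 3.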

`COc1cc(C)c(S(=O)(=O)Cc2nnc(CC(=O)N(C)C3CCNCC3(C)C)o2)c(C)c1` (stereo not drawn) [CC-88, N-(3,3-Dimethyl-piperidin-4-yl)-2-[5-[[(4-methoxy-2,6-dimethyl-phenyl)sulfonyl]-methyl]-[1,3,4]oxadiazol-2-yl]-N-methyl-acetamid]: the inhibition at 10 µM was determined as 97%.

`Cc1cccc(Cl)c1S(=O)(=O)Cc1noc(CC(=O)NC2CCNCC2)n1` [CC-90, 2-[3-[[(2-Chlor-6-methyl-phenyl)sulfonyl]-methyl]-[1,2,4]oxadiazol-5-yl]-N-piperidin-4-yl-acetamid]: the inhibition at 10 µM turned out to be 72%.

Turning to `Cc1cccc(Cl)c1S(=O)(=O)Cc1noc(CC(=O)NC2CCC(N3CCCC3)CC2(C)C)n1` (stereo not drawn) [CC-91, 2-[3-[[(2-Chlor-6-methyl-phenyl)sulfonyl]-methyl]-[1,2,4]oxadiazol-5-yl]-N-(2,2-dimethyl-4-pyrrolidin-1-yl-cyclohexyl)-acetamid], the inhibition at 10 µM was found to be 97%.

Regarding `Cc1cccc(Cl)c1S(=O)(=O)Cc1noc(CC(=O)NC2CCC(N3CCCC3)CC2)n1` (stereo not drawn) [CC-93, 2-[3-[[(2-Chlor-6-methyl-phenyl)sulfonyl]-methyl]-[1,2,4]oxadiazol-5-yl]-N-(4-pyrrolidin-1-yl-cyclohexyl)-acetamid], the inhibition at 10 µM amounted to 100%.

In the case of `COCCN1CCC(NC(=O)Cc2nc(CS(=O)(=O)c3c(C)cccc3Cl)no2)C(C)(C)C1` (stereo not drawn) [CC-94, 2-[3-[[(2-Chlor-6-methyl-phenyl)sulfonyl]-methyl]-[1,2,4]oxadiazol-5-yl]-N-[1-(2-methoxy-ethyl)-3,3-dimethyl-piperidin-4-yl]-acetamid], the inhibition at 10 µM amounted to 100%.

For the molecule `Cc1cccc(Cl)c1S(=O)(=O)Cc1noc(CC(=O)NC2CCC(NC3CC3)CC2(C)C)n1` (stereo not drawn) [CC-95, 2-[3-[[(2-Chlor-6-methyl-phenyl)sulfonyl]-methyl]-[1,2,4]oxadiazol-5-yl]-N-[4-(cyclopropylamino)-2,2-dimethyl-cyclohexyl]-acetamid], the inhibition at 10 µM amounted to 100%.

With `Cc1cccc(Cl)c1S(=O)(=O)Cc1noc(CC(=O)NC2CCN(C)CC2(C)C)n1` (stereo not drawn) [CC-96, 2-[3-[[(2-Chlor-6-methyl-phenyl)sulfonyl]-methyl]-[1,2,4]oxadiazol-5-yl]-N-(1,3,3-trimethyl-piperidin-4-yl)-acetamid], the inhibition at 10 µM came out at 100%.

On to `COc1cc(C)c(S(=O)(=O)Cc2nnc(CC(=O)NC3CCNCC3)o2)c(C)c1` [CC-97, 2-[5-[[(4-Methoxy-2,6-dimethyl-phenyl)sulfonyl]-methyl]-[1,3,4]oxadiazol-2-yl]-N-piperidin-4-yl-acetamid], for which the inhibition at 10 µM amounted to 98%.

For the molecule `Cc1cccc(Cl)c1S(=O)(=O)Cc1noc(CC(=O)NC2CCC(N3CCN(C)CC3)CC2(C)C)n1` (stereo not drawn) [CC-98, 2-[3-[[(2-Chlor-6-methyl-phenyl)sulfonyl]-methyl]-[1,2,4]oxadiazol-5-yl]-N-[2,2-dimethyl-4-(4-methyl-piperazin-1-yl)-cyclohexyl]-acetamid], the inhibition at 10 µM came to 100%.

As to `Cc1cc(S(=O)(=O)Cc2noc(CC(=O)N(C)C3CCNCC3(C)C)n2)c(C)cc1Cl` (stereo not drawn) [CC-100, 2-[3-[[(4-Chlor-2,5-dimethyl-phenyl)sulfonyl]-methyl]-[1,2,4]oxadiazol-5-yl]-N-(3,3-dimethyl-piperidin-4-yl)-N-methyl-acetamid], the inhibition at 10 µM is 58%.

For `COc1cc(C)c(S(=O)(=O)Cc2nc(CC(=O)N(C)C3CCNCC3(C)C)no2)c(C)c1` (stereo not drawn) [CC-101, N-(3,3-Dimethyl-piperidin-4-yl)-2-[5-[[(4-methoxy-2,6-dimethyl-phenyl)sulfonyl]-methyl]-[1,2,4]oxadiazol-3-yl]-N-methyl-acetamid], the inhibition at 10 µM is 100%.

Consider `COc1cc(C)c(S(=O)(=O)Cc2nc(CC(=O)NC3CCN(C)CC3(C)C)no2)c(C)c1` (stereo not drawn) [CC-102, 2-[5-[[(4-Methoxy-2,6-dimethyl-phenyl)sulfonyl]-methyl]-[1,2,4]oxadiazol-3-yl]-N-(1,3,3-trimethyl-piperidin-4-yl)-acetamid], for which the inhibition at 10 µM came out at 100%.

For `Cc1cc(S(=O)(=O)Cc2noc(CC(=O)NC3CCN(C)CC3(C)C)n2)c(C)cc1Cl` (stereo not drawn) [CC-105, 2-[3-[[(4-Chlor-2,5-dimethyl-phenyl)sulfonyl]-methyl]-[1,2,4]oxadiazol-5-yl]-N-(1,3,3-trimethyl-piperidin-4-yl)-acetamid], the inhibition at 10 µM was determined as 88%.

Consider `CC1(C)CC(N2CCCC2)CCC1NC(=O)Cc1nc(CS(=O)(=O)c2cccc(Cl)c2Cl)no1` (stereo not drawn) [CC-106, 2-[3-[[(2,3-Dichlor-phenyl)sulfonyl]-methyl]-[1,2,4]oxadiazol-5-yl]-N-(2,2-dimethyl-4-pyrrolidin-1-yl-cyclohexyl)-acetamid], for which the inhibition at 10 µM worked out at 82%.

As to `Cc1cccc(Cl)c1S(=O)(=O)Cc1noc(CC(=O)N(C2CCC(N(C)C)CC2)C2CC2)n1` (stereo not drawn) [CC-108, 2-[3-[[(2-Chlor-6-methyl-phenyl)sulfonyl]-methyl]-[1,2,4]oxadiazol-5-yl]-N-cyclopropyl-N-(4-dimethylamino-cyclohexyl)-acetamid], the inhibition at 10 µM was 88%.

In the case of `CC1(C)CC(c2ccncc2)CCC1NC(=O)Cc1nc(CS(=O)(=O)c2cccc(Cl)c2Cl)no1` (stereo not drawn) [CC-109, 2-[3-[[(2,3-Dichlor-phenyl)sulfonyl]-methyl]-[1,2,4]oxadiazol-5-yl]-N-(2,2-dimethyl-4-pyridin-4-yl-cyclohexyl)-acetamid], the inhibition at 10 µM was 100%.

In the case of `Cc1cccc(Cl)c1S(=O)(=O)Cc1noc(CC(=O)N(C)C2CCNCC2(C)C)n1` (stereo not drawn) [CC-110, 2-[3-[[(2-Chlor-6-methyl-phenyl)sulfonyl]-methyl]-[1,2,4]oxadiazol-5-yl]-N-(3,3-dimethyl-piperidin-4-yl)-N-methyl-acetamid], the inhibition at 10 µM was found to be 87%.

For the molecule `COc1cc(C)c(S(=O)(=O)Cc2nnc(CC(=O)NC3CCN(C)CC3(C)C)o2)c(C)c1` (stereo not drawn) [CC-111, 2-[5-[[(4-Methoxy-2,6-dimethyl-phenyl)sulfonyl]-methyl]-[1,3,4]oxadiazol-2-yl]-N-(1,3,3-trimethyl-piperidin-4-yl)-acetamid], the inhibition at 10 µM was 100%.

Turning to `CN(C)C1CCC(N(C(=O)Cc2nc(CS(=O)(=O)c3cccc(Cl)c3Cl)no2)C2CC2)CC1` (stereo not drawn) [CC-112, N-Cyclopropyl-2-[3-[[(2,3-dichlor-phenyl)sulfonyl]-methyl]-[1,2,4]oxadiazol-5-yl]-N-(4-dimethyl-amino-cyclohexyl)-acetamid], the inhibition at 10 µM was 67%.

Take `COc1cc(C)c(S(=O)(=O)Cc2nc(CC(=O)N(C3CCC(N(C)C)CC3)C3CC3)no2)c(C)c1` (stereo not drawn) [CC-116, N-Cyclopropyl-N-(4-dimethylamino-cyclohexyl)-2-[5-[[(4-methoxy-2,6-dimethyl-phenyl)sulfonyl]-methyl]-[1,2,4]oxadiazol-3-yl]-acetamid]: the inhibition at 10 µM turned out to be 100%.

With `COc1cc(C)c(S(=O)(=O)Cc2c(C)nn(CC(=O)N(C3CCC(N(C)C)CC3)C3CC3)c2C)c(C)c1` (stereo not drawn) [CC-118, N-Cyclopropyl-N-(4-dimethylamino-cyclohexyl)-2-[4-[[(4-methoxy-2,6-dimethyl-phenyl)sulfonyl]-methyl]-3,5-dimethyl-1H-pyrazol-1-yl]-acetamid], the inhibition at 10 µM worked out at 93%.

Take `COc1cc(C)c(S(=O)(=O)Cc2nnc(CC(=O)N(C3CCC(N(C)C)CC3)C3CC3)o2)c(C)c1` (stereo not drawn) [CC-124, N-Cyclopropyl-N-(4-dimethylamino-cyclohexyl)-2-[5-[[(4-methoxy-2,6-dimethyl-phenyl)sulfonyl]-methyl]-[1,3,4]oxadiazol-2-yl]-acetamid]: the inhibition at 10 µM came to 100%.

In the case of `COc1cc(C)c(S(=O)(=O)Cc2cc(C)n(CC(=O)NC3CCC(c4ccncc4)CC3(C)C)n2)c(C)c1` (stereo not drawn) [CC-127, N-(2,2-Dimethyl-4-pyridin-4-yl-cyclohexyl)-2-[3-[[(4-methoxy-2,6-dimethyl-phenyl)sulfonyl)-methyl]-5-methyl-1 H-pyrazol-1-yl]-acetamid], the inhibition at 10 µM came to 68%.

Take `COc1cc(C)c(S(=O)(=O)Cc2noc(C(=O)N3CCC(N4CCN(C)CC4)CC3)n2)c(C)c1` [CC-129, [3-[[(4-Methoxy-2,6-dimethyl-phenyl)sulfonyl]-methyl]-[1,2,4]oxadiazol-5-yl]-[4-(4-methyl-piperazin-1-yl)-piperidin-1-yl]-methanon]: the inhibition at 10 µM stood at 100%.

As to `COc1cc(C)c(S(=O)(=O)Cc2noc(CC(=O)N3CCC4(CCN(C)C4)C3)n2)c(C)c1` (stereo not drawn) [CC-130, 2-[3-[[(4-Methoxy-2,6-dimethyl-phenyl)sulfonyl]-methyl]-[1,2,4]oxadiazol-5-yl]-1-(2-methyl-2,8-diazaspiro[4.4]nonan-8-yl)-ethanon], the inhibition at 10 µM was 99%.

Consider `COc1cc(C)c(S(=O)(=O)Cc2noc(CC(=O)N3CCC(N4CCN(C)CC4)CC3)n2)c(C)c1` [CC-131, 2-[3-[[(4-Methoxy-2,6-dimethyl-phenyl)sulfonyl]-methyl]-[1,2,4]oxadiazol-5-yl]-1-[4-(4-methyl-piperazin-1-yl)-piperidin-1-yl]-ethanon], for which the inhibition at 10 µM was determined as 100%.

As for `COc1cc(C)c(S(=O)(=O)Cc2noc(CC(=O)N3CCN(c4ccncc4)CC3)n2)c(C)c1` [CC-133, 2-[3-[[(4-Methoxy-2,6-dimethyl-phenyl)sulfonyl]-methyl]-[1,2,4]oxadiazol-5-yl]-1-(4-pyridin-4-yl-piperazin-1-yl)-ethanon], the inhibition at 10 µM was 100%.
